Data taken from ChEMBL document CHEMBL2169775, “Tacrine-ferulic acid-nitric oxide (NO) donor trihybrids as potent, multifunctional acetyl- and butyrylcholinesterase inhibitors” (J Med Chem, 2012).
Calls of active or inactive are those of the source. The calls are words filed in the database; no cut-off is given here.

Legend:
[1] = molecular target: Acetylcholinesterase (Electrophorus electricus, UniProt O42275)
Description: Inhibition of eel AChE using acetylthiocholine iodide as substrate after 5 mins by Ellman's method

[2] = molecular target: Cholinesterase (Equus caballus, UniProt P81908)
Description: Inhibition of equine serum BuChE using butyrylthiocholine iodide as substrate after 5 mins by Ellman's method

[3] = system: Radical scavenging activity; assay: Antioxidant activity assessed as DPPH free radical scavenging activity at 2 mM relative to ferulic acid; assay type: functional
[4] = system: Aorta; assay: tissue or blood; details: Rattus norvegicus
Description: Vasorelaxant activity in rat aortic rings assessed as reduction of norepinephrine-induced contraction

[5] = molecular target: Cholinesterase (Equus caballus) (UniProt P81908); assay: Competitive inhibition of equine serum BuChE using butyrylthiocholine iodide as substrate at 1 to 10 nM after 4 mins by Ellman's method
Cholinesterase (Equus caballus), sequence (P81908 whole entry): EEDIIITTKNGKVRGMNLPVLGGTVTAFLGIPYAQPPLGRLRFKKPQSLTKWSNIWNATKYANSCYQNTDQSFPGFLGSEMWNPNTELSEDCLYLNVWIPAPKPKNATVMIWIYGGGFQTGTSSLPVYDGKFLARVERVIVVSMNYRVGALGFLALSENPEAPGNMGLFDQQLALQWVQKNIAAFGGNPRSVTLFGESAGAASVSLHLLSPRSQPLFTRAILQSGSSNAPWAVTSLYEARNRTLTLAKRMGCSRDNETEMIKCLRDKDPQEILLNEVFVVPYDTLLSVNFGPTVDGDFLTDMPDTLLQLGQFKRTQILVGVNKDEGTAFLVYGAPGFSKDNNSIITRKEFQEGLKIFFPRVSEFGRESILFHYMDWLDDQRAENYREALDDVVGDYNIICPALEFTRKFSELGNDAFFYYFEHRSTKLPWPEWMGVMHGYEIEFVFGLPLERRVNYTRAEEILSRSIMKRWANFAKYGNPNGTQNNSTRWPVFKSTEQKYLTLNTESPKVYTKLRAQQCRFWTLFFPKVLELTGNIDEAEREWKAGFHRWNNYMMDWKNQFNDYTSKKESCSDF

[6] = Induction of NO release in phosphate buffer assessed as inorganic nitrite level at pH 7.4 at 10^-4 M measured at 30 mins by Griess assay in presence of L-cysteine; assay type: physicochemical; details: pH 7.4, 0.5 h, 100 µM
[7] = molecular target: Acetylcholinesterase (Electrophorus electricus) (UniProt O42275); assay: Mixed inhibition of eel AChE using acetylthiocholine iodide as substrate at 1 to 10 nM after 4 mins by Lineweaver-Burk plot analysis
Acetylcholinesterase (Electrophorus electricus), sequence (O42275 24-633 limits assumed): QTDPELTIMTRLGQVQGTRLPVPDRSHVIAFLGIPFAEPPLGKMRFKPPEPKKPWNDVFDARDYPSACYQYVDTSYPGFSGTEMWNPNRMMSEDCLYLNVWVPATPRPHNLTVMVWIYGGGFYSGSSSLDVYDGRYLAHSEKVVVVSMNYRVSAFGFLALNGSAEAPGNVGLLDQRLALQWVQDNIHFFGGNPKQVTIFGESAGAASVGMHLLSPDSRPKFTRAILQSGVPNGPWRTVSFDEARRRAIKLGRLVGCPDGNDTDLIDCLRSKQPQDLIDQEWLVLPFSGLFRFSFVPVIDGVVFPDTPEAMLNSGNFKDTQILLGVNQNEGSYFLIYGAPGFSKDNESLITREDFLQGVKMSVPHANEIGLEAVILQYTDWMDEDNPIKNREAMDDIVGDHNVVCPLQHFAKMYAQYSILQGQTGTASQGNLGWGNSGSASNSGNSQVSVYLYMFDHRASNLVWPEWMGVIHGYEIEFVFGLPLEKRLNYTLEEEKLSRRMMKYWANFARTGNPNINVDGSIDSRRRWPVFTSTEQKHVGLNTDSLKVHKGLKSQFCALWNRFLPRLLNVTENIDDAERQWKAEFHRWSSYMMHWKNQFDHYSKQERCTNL

[8] = Induction of NO release in phosphate buffer assessed as inorganic nitrite level at pH 7.4 at 10^-4 M measured at 10 mins by Griess assay in presence of L-cysteine; assay type: physicochemical; details: pH 7.4, 10 min, 100 µM

Cholinesterase, sequence (P81908 whole entry): as the sequence (P81908 whole entry) above
Acetylcholinesterase, sequence (O42275 whole entry): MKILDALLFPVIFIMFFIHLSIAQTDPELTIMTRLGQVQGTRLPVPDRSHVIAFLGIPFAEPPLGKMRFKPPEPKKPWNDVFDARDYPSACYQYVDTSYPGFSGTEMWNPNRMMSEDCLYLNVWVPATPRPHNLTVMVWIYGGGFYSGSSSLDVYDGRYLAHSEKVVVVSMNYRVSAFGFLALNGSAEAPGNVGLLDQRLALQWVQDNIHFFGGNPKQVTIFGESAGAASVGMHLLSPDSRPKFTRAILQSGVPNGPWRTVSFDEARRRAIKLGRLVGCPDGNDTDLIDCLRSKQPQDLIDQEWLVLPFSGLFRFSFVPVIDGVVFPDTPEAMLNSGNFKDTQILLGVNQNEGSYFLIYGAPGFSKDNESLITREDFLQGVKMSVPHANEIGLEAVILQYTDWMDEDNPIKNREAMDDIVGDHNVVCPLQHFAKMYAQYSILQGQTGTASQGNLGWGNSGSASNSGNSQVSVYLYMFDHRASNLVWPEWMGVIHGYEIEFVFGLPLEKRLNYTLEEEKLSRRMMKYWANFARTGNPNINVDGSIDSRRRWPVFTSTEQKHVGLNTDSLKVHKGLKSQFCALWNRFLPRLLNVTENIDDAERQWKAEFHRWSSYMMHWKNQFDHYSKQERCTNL

NCCNc1c2c(nc3ccccc13)CCCC2
IC50 [1]: 0.0714 µM | IC50 [2]: 0.0309 µM

COc1cc(/C=C/C(=O)NCCCCCCNc2c3c(nc4ccccc24)CCCC3)ccc1OCCCCCCO[N+](=O)[O-]
Activity [3]: < 1% | IC50 [1]: 0.0048 µM | IC50 [2]: 0.002 µM

O=[N+]([O-])O[C@H]1CO[C@H]2[C@@H]1OC[C@H]2O[N+](=O)[O-] [ISOSORBIDE DINITRATE]
EC50 [4]: 25.2 µM

COc1cc(/C=C/C(=O)NCCCCCCNc2c3c(nc4ccccc24)CCCC3)ccc1OCCCCO[N+](=O)[O-]
Activity [3]: < 1% | IC50 [1]: 0.0037 µM | IC50 [2]: 0.0014 µM

COc1cc(/C=C/C(=O)NCCCNc2c3c(nc4ccccc24)CCCC3)ccc1OCCCCCCO[N+](=O)[O-]
Activity [3]: < 1% | IC50 [1]: 0.0218 µM | IC50 [2]: 0.0193 µM

COc1cc(/C=C/C(=O)NCCNc2c3c(nc4ccccc24)CCCC3)ccc1OCCCO[N+](=O)[O-]
Activity [3]: < 1% | IC50 [1]: 0.0199 µM | IC50 [2]: 0.0084 µM

COc1cc(/C=C/C(=O)O)ccc1OCCCCO[N+](=O)[O-]
IC50 [1]: > 10 µM | IC50 [2]: > 10 µM

COc1cc(/C=C/C(=O)NCCCCNc2c3c(nc4ccccc24)CCCC3)ccc1OCCCCO[N+](=O)[O-]
Activity [3]: < 1% | IC50 [1]: 0.0195 µM | IC50 [2]: 0.0047 µM

COc1cc(/C=C/C(=O)NCCCCCCCCNc2c3c(nc4ccccc24)CCCC3)ccc1O
IC50 [1]: 0.0169 µM | IC50 [2]: 0.0274 µM

NCCCCCCNc1c2c(nc3ccccc13)CCCC2
IC50 [1]: 0.0237 µM | IC50 [2]: 0.0066 µM

COc1cc(/C=C/C(=O)NCCCCNc2c3c(nc4ccccc24)CCCC3)ccc1OCCO[N+](=O)[O-]
Activity [3]: < 1% | IC50 [1]: 0.0221 µM | IC50 [2]: 0.0202 µM

COc1cc(/C=C/C(=O)NCCNc2c3c(nc4ccccc24)CCCC3)ccc1OCCCCCCO[N+](=O)[O-]
Activity [3]: < 1% | IC50 [1]: 0.0406 µM | IC50 [2]: 0.0218 µM

COc1cc(/C=C/C(=O)NCCCCCCCCNc2c3c(nc4ccccc24)CCCC3)ccc1OCCCCO[N+](=O)[O-]
Activity [3]: < 1% | IC50 [1]: 0.0094 µM | IC50 [2]: 0.0018 µM

COc1cc(/C=C/C(=O)NCCNc2c3c(nc4ccccc24)CCCC3)ccc1OCCO[N+](=O)[O-]
Activity [3]: < 1% | IC50 [1]: 0.0172 µM | EC50 [4]: 48.8 µM | IC50 [2]: 0.0105 µM

COc1cc(/C=C/C(=O)NCCCCNc2c3c(nc4ccccc24)CCCC3)ccc1O
IC50 [1]: 0.0111 µM | IC50 [2]: 0.0098 µM

CCCOc1ccc(/C=C/C(=O)NCCCNc2c3c(nc4ccccc24)CCCC3)cc1OC
IC50 [1]: 0.0698 µM | EC50 [4]: 838 µM | IC50 [2]: 0.0403 µM

COc1cc(/C=C/C(=O)NCCCNc2c3c(nc4ccccc24)CCCC3)ccc1O
IC50 [1]: 0.0567 µM | EC50 [4]: 2050 µM | IC50 [2]: 0.0311 µM

COc1cc(/C=C/C(=O)NCCCCCCNc2c3c(nc4ccccc24)CCCC3)ccc1O
Activity [3]: 64.7% | IC50 [1]: 0.0127 µM | IC50 [2]: 0.0263 µM

NCCCCNc1c2c(nc3ccccc13)CCCC2
IC50 [1]: 0.0393 µM | IC50 [2]: 0.0229 µM

NCCCNc1c2c(nc3ccccc13)CCCC2
IC50 [1]: 0.0795 µM | IC50 [2]: 0.0197 µM

COc1cc(/C=C/C(=O)NCCNc2c3c(nc4ccccc24)CCCC3)ccc1O
IC50 [1]: 0.062 µM | IC50 [2]: 0.0375 µM

COc1cc(/C=C/C(=O)NCCCNc2c3c(nc4ccccc24)CCCC3)ccc1OCCCCO[N+](=O)[O-]
Activity [3]: < 1% | IC50 [1]: 0.0036 µM | IC50 [2]: 0.0062 µM

NCCCCCCCCNc1c2c(nc3ccccc13)CCCC2
IC50 [1]: 0.0029 µM | IC50 [2]: 0.0028 µM

COc1cc(/C=C/C(=O)NCCCCCCNc2c3c(nc4ccccc24)CCCC3)ccc1OCCO[N+](=O)[O-]
Activity [3]: < 1% | IC50 [1]: 0.0083 µM | IC50 [2]: 0.0052 µM

COc1cc(/C=C/C(=O)NCCCCCCNc2c3c(nc4ccccc24)CCCC3)ccc1OCCCO[N+](=O)[O-]
Activity [3]: < 1% | IC50 [1]: 0.0044 µM | IC50 [2]: 0.0056 µM

COc1cc(/C=C/C(=O)NCCCCNc2c3c(nc4ccccc24)CCCC3)ccc1OCCCO[N+](=O)[O-]
Activity [3]: < 1% | IC50 [1]: 0.0443 µM | IC50 [2]: 0.0236 µM

COc1cc(/C=C/C(=O)NCCCNc2c3c(nc4ccccc24)CCCC3)ccc1OCCCO[N+](=O)[O-]
inhibition [5]: Active | Activity [3]: < 1% | IC50 [1]: 0.0109 µM | Activity [6]: 0.305 µg/mL | inhibition [7]: Active | Activity [8]: 0.241 µg/mL | EC50 [4]: 34.3 µM | IC50 [2]: 0.0177 µM

COc1cc(/C=C/C(=O)O)ccc1OCCCO[N+](=O)[O-]
IC50 [1]: > 10 µM | IC50 [2]: > 10 µM

COc1cc(/C=C/C(=O)NCCCCNc2c3c(nc4ccccc24)CCCC3)ccc1OCCCCCCO[N+](=O)[O-]
Activity [3]: < 1% | IC50 [1]: 0.0279 µM | IC50 [2]: 0.0117 µM

COc1cc(/C=C/C(=O)O)ccc1OCCCCCCO[N+](=O)[O-]
IC50 [1]: > 10 µM | IC50 [2]: > 10 µM

COc1cc(/C=C/C(=O)NCCCNc2c3c(nc4ccccc24)CCCC3)ccc1OCCO[N+](=O)[O-]
Activity [3]: < 1% | IC50 [1]: 0.0144 µM | IC50 [2]: 0.0249 µM

COc1cc(/C=C/C(=O)NCCNc2c3c(nc4ccccc24)CCCC3)ccc1OCCCCO[N+](=O)[O-]
Activity [3]: < 1% | IC50 [1]: 0.0271 µM | IC50 [2]: 0.0076 µM

COc1cc(/C=C/C(=O)NCCCCCCCCNc2c3c(nc4ccccc24)CCCC3)ccc1OCCCCCCO[N+](=O)[O-]
Activity [3]: < 1% | IC50 [1]: 0.0108 µM | IC50 [2]: 0.0019 µM

COc1cc(/C=C/C(=O)O)ccc1OCCO[N+](=O)[O-]
IC50 [1]: > 10 µM | IC50 [2]: > 10 µM

COc1cc(/C=C/C(=O)NCCCCCCCCNc2c3c(nc4ccccc24)CCCC3)ccc1OCCCO[N+](=O)[O-]
Activity [3]: < 1% | IC50 [1]: 0.0101 µM | IC50 [2]: 0.001 µM

COc1cc(/C=C/C(=O)NCCCCCCCCNc2c3c(nc4ccccc24)CCCC3)ccc1OCCO[N+](=O)[O-]
Activity [3]: < 1% | IC50 [1]: 0.0055 µM | Activity [6]: 0.275 µg/mL | Activity [8]: 0.145 µg/mL | EC50 [4]: 234 µM | IC50 [2]: 0.0016 µM
